This passage reports IC50 results from patent publication US9255100B2 (BAYER INTELLECTUAL PROPERTY GMBH, priority 2010, dated 2016).

A word on the IC50: it is the concentration at which inhibition is half-maximal.

This assay concerns the target T1, N-terminally GST-tagged human full length recombinant Mps-1 kinase (Homo sapiens, UniProt P33981).
T1 construct: N-terminally GST-tagged human full length recombinant Mps-1 kinase; purchased Invitrogen, Karslruhe, Germany PV4071
T1 sequence (P33981 1-857): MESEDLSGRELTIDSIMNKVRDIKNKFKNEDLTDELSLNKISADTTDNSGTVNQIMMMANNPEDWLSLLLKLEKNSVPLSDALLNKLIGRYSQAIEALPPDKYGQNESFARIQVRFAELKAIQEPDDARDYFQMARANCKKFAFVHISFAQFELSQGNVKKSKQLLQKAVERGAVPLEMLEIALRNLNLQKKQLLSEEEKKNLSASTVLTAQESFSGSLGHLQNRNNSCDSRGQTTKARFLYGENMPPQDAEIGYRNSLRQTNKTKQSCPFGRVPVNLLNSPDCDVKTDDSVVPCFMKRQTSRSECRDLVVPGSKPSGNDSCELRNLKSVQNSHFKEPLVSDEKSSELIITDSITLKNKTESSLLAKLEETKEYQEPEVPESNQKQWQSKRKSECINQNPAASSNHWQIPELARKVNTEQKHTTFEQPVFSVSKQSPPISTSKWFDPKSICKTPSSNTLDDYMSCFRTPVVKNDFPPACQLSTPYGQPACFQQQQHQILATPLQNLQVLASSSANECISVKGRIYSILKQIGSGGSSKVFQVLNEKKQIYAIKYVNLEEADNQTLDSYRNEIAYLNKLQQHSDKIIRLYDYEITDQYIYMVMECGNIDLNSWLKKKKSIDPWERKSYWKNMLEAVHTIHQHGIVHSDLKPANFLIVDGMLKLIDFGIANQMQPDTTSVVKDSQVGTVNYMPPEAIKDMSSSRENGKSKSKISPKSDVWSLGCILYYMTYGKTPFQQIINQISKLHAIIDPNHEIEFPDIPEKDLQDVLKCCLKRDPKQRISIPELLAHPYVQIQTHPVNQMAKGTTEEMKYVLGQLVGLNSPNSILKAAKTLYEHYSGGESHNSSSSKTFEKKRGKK
Put plainly: Mps-1 kinase assay (TR-FRET). It is filed as biochemical. To be noted: Mps1 IC50 [nM], 10 μM ATP, 1 μM peptide substrate, 60 min at 22° C. Put shortly: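 Compounds were tested against recombinant full-length Mps-1 bearing an N-terminal GST tag, about 1 nM final, with a biotinylated amide-capped peptide as substrate. Detection reagents were then bound for 1 h at 22° C and the product read by TR-FRET.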
On the technique in general: TR-FRET usually uses a lanthanide donor and a delayed reading to cut background.
For `CC(C)CNc1cc(-c2cnn(C)c2)nn2c(-c3ccc(C(=O)NC4CC4)cc3)cnc12` [Example 117, N-cyclopropyl-4-{8-[(2-methylpropyl)amino]-6-(1-methyl-1H-pyrazol-4-yl)imidazo[1,2-b]pyridazin-3-yl}benzamide], the IC50 was 3.3 nM.

`COc1ccccc1Sc1cc(NCCC(F)(F)F)c2ncc(-c3ccc(C(=O)NC4CC4)c(C)c3)n2n1` [Example 55, N-cyclopropyl-4-{6-[(2-methoxyphenyl)sulfanyl]-8-[(3,3,3-trifluoropropyl)amino]imidazo[1,2-b]pyridazin-3-yl}-2-methylbenzamide]: the IC50 was determined as 1.2 nM. The value for `COc1cc(C(=O)NC2CC2)ccc1-c1cnc2c(NCC(C)(C)O)cc(Sc3cccc(F)c3)nn12` [Example 62B, N-cyclopropyl-4-{6-[(3-fluorophenyl)sulfanyl]-8-[(2-hydroxy-2-methylpropyl)amino]imidazo[1,2-b]pyridazin-3-yl}-3-methoxybenzamide] was 11.5 nM; that for `CC(C)(O)CNc1cc(Sc2cccc(F)c2)nn2c(-c3ccc(C(=O)NC4CC4)cc3O)cnc12` [Example 62A, N-cyclopropyl-4-{6-[(3-fluorophenyl)sulfanyl]-8-[(2-hydroxy-2-methylpropyl)amino]imidazo[1,2-b]pyridazin-3-yl}-3-hydroxybenzamide] was 0.2 nM.

For the compound `CNC(=O)c1ccc(-c2cnc3c(NCCOC)cc(Oc4ccc(F)c(F)c4)nn23)cc1C` [Example 582, 4-{6-(3,4-difluorophenoxy)-8-[(2-methoxyethyl)a-mino]imidazo[1,2-b]pyridazin-3-yl}-N,2-dimethylbenzamide], the IC50 was 3.8 nM. In the case of `CC(C)(O)CNc1cc(-c2ccc(F)cc2)nn2c(-c3ccc(C(=O)NC4CC4)cc3)cnc12` [Example 19, N-cyclopropyl-4-{6-(4-fluorophenyl)-8-[(2-hydroxy-2-methylpropyl)amino]imidazo[1,2-b]pyridazin-3-yl}benzamide], the IC50 came out at 1.6 nM. In the case of `COc1cccc(Nc2cc(NCC(C)(C)O)c3ncc(-c4ccc(C(=O)NC5CC5)c(C)c4)n3n2)c1` [Example 403, N-cyclopropyl-4-{8-[(2-hydroxy-2-methylpropyl)amino]-6-[(3-methoxyphenyl)amino]imidazo[1,2-b]pyridazin-3-yl}-2-methylbenzamide], the IC50 turned out to be 1 nM. Regarding `Cc1cc(-c2cnc3c(NCCN4CCOCC4)cc(Oc4ccc(F)c(F)c4)nn23)ccc1C(=O)NC1CC1` [Example 540, N-cyclopropyl-4-[6-(3,4-difluoro-phenoxy)-8-{[2-(morpholin-4-yl)ethyl]amino}imidazo[1,2-b]pyridazin-3-yl]-2-methyl-benzamide], the half-inhibitory concentration (IC50) worked out at 0.1 nM.

Consider `Cc1cc(-c2cnc3c(NCCN(C)C)cc(Oc4ccc(Cl)cc4)nn23)ccc1C(=O)NC1CC1` [Example 523, 4-[6-(4-chlorophenoxy)-8-{[2-(dimethylamino)ethyl]amino}imidazo[1,2-b]pyridazin-3-yl]-N-cyclopropyl-2-methylbenzamide], for which the IC50 was 0.7 nM. As for `Cc1cc(-c2cnc3c(NCC4CNC4)cc(-c4ccccc4CO)nn23)ccc1C(=O)NC1CC1` [Example 338, 4-{8-[(azetidin-3-ylmethyl)amino]-6-[2-(hydroxymethyl)phenyl]imidazo[1,2-b]pyridazin-3-yl}-N-cyclo-propyl-2-methylbenzamide], the IC50 came to 83.9 nM.

With `CNc1ccccc1Oc1cc(NCCC(F)(F)F)c2ncc(-c3ccc(C(=O)NC4CC4)c(C)c3)n2n1` [Example 389, N-cyclopropyl-2-methyl-4-{6-[2-(methylamino)phenoxy]-8-[(3,3,3-trifluoropropyl)amino]imidazo[1,2-b]pyridazin-3-yl}benzamide], the IC50 was 0.1 nM. As to `Cc1cc(-c2cnc3c(NC[C@@H]4CCCO4)cc(-c4ccnn4C)nn23)ccc1C(=O)NC1CC1` [Example 34, N-cyclopropyl-2-methyl-4-[6-(1-methyl-1H-pyrazol-5-yl)-8-{[(2S)-tetrahydrofuran-2-ylmethyl]amino}imidazo[1,2-b]pyridazin-3-yl]benzamide], the IC50 came to 2.4 nM. For the compound `COc1cc(C(=O)NC2CC2)ccc1-c1cnc2c(NCC(C)(C)O)cc(Sc3ccccc3)nn12` [Example 51A, N-cyclopropyl-4-{8-[(2-hydroxy-2-methylpropyl)amino]-6-(phenylsulfanyl)imidazo[1,2-b]pyridazin-3-yl}-3-methoxybenzamide], the IC50 was found to be 58 nM. Next, `CC(C)CNc1cc(-c2ccccc2)nn2c(-c3ccc4c(N)n[nH]c4c3)cnc12` [Example 11, 3-(3-Amino-1H-indazol-6-yl)-N-isobutyl-6-phenylimidazo[1,2-b]pyridazin-8-amine]: 2.4 nM; `Cc1cc(-c2cnc3c(NCC(C)(C)O)cc(Oc4ccnn4C)nn23)ccc1C(=O)NC1CC1` [Example 319, N-cyclopropyl-4-{8-[(2-hydroxy-2-methylpropyl)amino]-6-[(1-methyl-1H-pyrazol-5-yl)oxy]imidazo[1,2-b]pyridazin-3-yl}-2-methylbenzamide]: 121 nM; `Cc1cc(-c2cnc3c(NCCC(F)(F)F)cc(Nc4ccc(Cl)c(F)c4)nn23)ccc1C(=O)NC1CC1` [Example 372, 4-{6-[(4-chloro-3-fluorophenyl)amino]-8-[(3,3,3-trifluoropropyl)amino]imidazo[1,2-b]pyridazin-3-yl}-N-cyclopropyl-2-methylbenzamide]: 0.2 nM. Next, `Cc1cc(-c2cnc3c(NCC(C)(C)O)cc(Nc4ccc(F)cc4F)nn23)ccc1C(=O)NC1CC1` [Example 356, N-cyclopropyl-4-{6-[(2,4-difluorophenyl)amino]-8-[(2-hydroxy-2-methylpropyl)amino]imidazo[1,2-b]pyridazin-3-yl}-2-methylbenzamide]: 0.6 nM; `Cc1cc(-c2cnc3c(NCCC(F)(F)F)cc(Oc4cccc(F)c4)nn23)ccc1C(=O)NCCC(F)(F)F` [Example 554, 4-{6-(3-fluorophenoxy)-8-[(3,3,3-trifluoropropyl)amino]imidazo[1,2-b]pyridazin-3-yl}-2-methyl-N-(3,3,3-trifluoropropyl)benzamide]: 1.6 nM.

For `Cc1cc(-c2cnc3c(NCCC(F)(F)F)cc(Sc4cnccn4)nn23)ccc1C(=O)NC1CC1` [Example 420, N-cyclopropyl-2-methyl-4-{6-(pyrazin-2-ylsulfanyl)-8-[(3,3,3-trifluoropropyl)amino]imidazo[1,2-b]pyridazin-3-yl}benzamide], the 50% inhibitory concentration (IC50) was determined as 2.8 nM. As for `Cc1ccc(F)cc1Oc1cc(NCCS(C)(=O)=O)c2ncc(-c3ccc(C(=O)NC4CC4)c(C)c3)n2n1` [Example 517, N-cyclopropyl-4-[6-(5-fluoro-2-methylphenoxy)-8-{[2-(methylsulfonyl)ethyl]amino}imidazo [1,2-b]pyridazin-3-yl]-2-methylbenzamide], the IC50 came to 0.2 nM. Turning to `Cc1cc(-c2cnc3c(NCC(C)C)cc(-c4cncc(C#N)c4)nn23)ccc1C(=O)NC1CC1` [Example 213, 4-{6-(5-Cyanopyridin-3-yl)-8-(isobutylamino)imidazo[1,2-b]pyridazin-3-yl}-N-cyclopropyl-2-methylbenzamide], the 50% inhibitory concentration (IC50) was < 1 nM. In the case of `Cc1cc(-c2cnc3c(NCCC(F)(F)F)cc(SCCO)nn23)ccc1C(=O)NC1CC1` [Example 204, N-cyclopropyl-4-{6-[(2-hydroxyethyl)sulfanyl]-8-[(3,3,3-trifluoropropyl)amino]imidazo[1,2-b]pyridazin-3-yl}-2-methylbenzamide], the concentration for half-maximal inhibition (IC50) is < 1 nM. In the case of `Cc1nnc(-c2ccc(-c3cc(NCC(C)C)c4ncc(-c5ccc(C(=O)NC6CC6)cc5)n4n3)cc2)o1` [Example 148, N-cyclopropyl-4-{6-[4-(5-methyl-1,3,4-oxadiazol-2-yl)phenyl]-8-[(2-methylpropyl)amino]imidazo[1,2-b]pyridazin-3-yl}benzamide], the IC50 stood at 1.5 nM. Regarding `CNC(=O)c1ccc(-c2cnc3c(NCCOC)cc(Oc4ccc(OC)cc4F)nn23)cc1C` [Example 584, 4-{6-(2-fluoro-4-methoxyphenoxy)-8-[(2-methoxyethyl)a-mino]imidazo[1,2-b]pyridazin-3-yl}-N,2-dimethylbenzamide], the IC50 stood at 2.3 nM.

As for `Cc1cc(-c2cnc3c(NCC(C)(C)N)cc(Oc4cccnc4)nn23)ccc1C(=O)NC1CC1` [Example 522, 4-{8-[(2-amino-2-methyl-propyl)amino]-6-(pyridin-3-yloxy)imidazo[1,2-b]pyridazin-3-yl}-N-cyclopropyl-2-methylbenzamide], the IC50 amounted to 1.8 nM.
